In PubChem BioAssay (NCI) one finds GI50 and TGI data, which are given here for 19 compounds.

Where “and” joins values, the source holds several entries; their conditions need not be identical. Equal values may be shown once.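 Where inhibition never reached the appropriate level, the endpoint shown equals the highest concentration tested. Otherwise, values were interpolated linearly from a five-concentration, 48-hour dose response in 96-well plates. Here, GI50 denotes the concentration required for 50% inhibition of growth. TGI marks complete inhibition of growth.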 Where only a bound is given, the exact number is not on record here.

Test in all cases: growth of human tumour cells (NCI), 48 h
In assay [1] the test system is A498 renal.
Assay [2] deals with DLD-1 colon.
For assay [3], the system named is HCT-15 colon.
The test system of assay [4] is KM12 colon.
Assay [5] relates to M19-MEL melanoma.
Assay [6] has as its system OVCAR-3 ovarian.
Assay [7] has as its system SK-MEL-28 melanoma.
Assay [8] has as its system SNB-19 CNS.
Assay [9] has as its system SNB-75 CNS.
Assay [10] concerns MDA-MB-435.

With `CCCCCCCCCCCCCCCC(=O)N[C@H]1CCc2cc(OC)c(OC)c(OC)c2-c2ccc(SC)c(=O)cc21`, the GI50 in assay [1] is 2.27 µM; in [2], 0.709 µM; in assay [3], 1.54 µM; in [4] it was 0.845 µM; in assay [5] it was 3.15 µM; in assay [6], 0.53 µM. The figures for the GI50 in [8] and in assay [9] were 2.46 µM and 2.96 µM, respectively. Further, the TGI in [1] is 3.64 µM and 5.35 µM; in assay [2], 10.6 µM and 12.4 µM; in assay [3], 5.01 µM and 4.04 µM; in assay [4], 8.4 µM and 3.73 µM; in assay [5], 13.6 µM and 13.7 µM; in assay [6], 0.642 µM and 3.01 µM. The TGI in assay [7] was 24.3 µM and 17.9 µM; in assay [8] it was 9.27 µM and 8.35 µM.
Turning to `COc1cc(C2c3cc4c(cc3[C@@H](Nc3cccc(O)c3)C3COC(=O)[C@H]23)OCO4)cc(OC)c1O` (stereo not given in full), the GI50 in [1] was 0.86 µM; in assay [5], 0.747 µM; in [7], 0.746 µM; in assay [8], 0.949 µM; in [9], 0.623 µM. The TGI came out at 5.9 µM in assay [1]; 40.9 µM in assay [2]; 46.4 µM in assay [3]; 11.6 µM in [4]; 18.9 µM in assay [5]; 18.8 µM in assay [10]. Further, the TGI in assay [6] was 12.6 µM; in [7] it was 20.7 µM; in assay [8] it was 24.9 µM; in assay [9], 14.1 µM.
For `COc1cc2cc3c4c(cc(OC)c(OC)c4c2cc1OC)CCN3C(=O)OCCBr`, the TGI in assay [1], in assay [2], in [3], in assay [4], in assay [5] and in [6] was greater than 100 µM each time. The TGI in assay [7], in assay [8] and in assay [9] was greater than 100 µM each time.
As for `Clc1ccccc1C1=NN(c2ccccc2)C2c3cc(Br)ccc3OCC12` (stereo not given), the TGI in [1], in [2], in [4], in assay [5], in assay [6] and in [7] was greater than 100 µM in each case. Moreover, the TGI in assay [8] and in [9] was greater than 100 µM throughout.
With `CC(C)=C1CCC(CN2CCCC2)C1=O` (stereo not given), the TGI in assay [1] was greater than 100 µM; in [2], 33.7 µM; in [3], 35.5 µM; in [4], greater than 100 µM; in [5] it was 37.4 µM; in [6], 31.3 µM. Further, the TGI was 48.8 µM in assay [7], greater than 100 µM in assay [8] and greater than 100 µM in [9].
With `Cc1cccc(N2C(=O)/C(=C/c3ccc(N(CCC#N)CCC#N)cc3C)N=C2c2cc([N+](=O)[O-])ccc2Cl)c1`, the TGI in assay [1], in [2], in assay [3], in assay [4], in assay [5] and in assay [6] was greater than 100 µM each time. Moreover, the TGI in assay [7], in [8] and in assay [9] was greater than 100 µM each time.
Turning to `CC[C@@]1(O)C(=O)OCc2c1cc1n(c2=O)Cc2cc3c(NC(C)=O)c(O)ccc3nc2-1`, the GI50 is 5.9 µM in assay [1]; 43.3 µM in assay [2]; 18 µM in [3]; 14.4 µM in assay [4]; 4.93 µM in [5]; 9.7 µM in assay [6]. Moreover, the GI50 is greater than 25.9 µM in [7], 0.917 µM in [8] and 0.744 µM in [9]. The TGI is 22.5 µM in assay [1]; greater than 100 µM in [2]; greater than 100 µM in assay [3]; greater than 61.3 µM in [4]; 43.7 µM in [5]; 41.1 µM in [6]. Besides, the TGI in assay [7] was greater than 100 µM; in assay [8], greater than 56.6 µM; in assay [9], 7.31 µM.
As to `COc1ccccc1NC(=O)C(=O)C1C(=O)Nc2ccccc2S1=O` (stereo not given), the TGI in assay [1], in assay [2], in [3], in assay [4], in assay [5] and in assay [6] was greater than 100 µM each time. The TGI in [7], in assay [8] and in assay [9] was greater than 100 µM throughout.
`C/C(=N/Nc1ccc([N+](=O)[O-])cc1[N+](=O)[O-])C(CC(C(=O)Nc1ccccc1C)/C(C)=N\Nc1ccc([N+](=O)[O-])cc1[N+](=O)[O-])C(=O)Nc1ccccc1C` (stereo not given): the TGI in assay [1] is 34 µM; in [2], greater than 100 µM; in [3], greater than 63.5 µM; in [4], 38.5 µM; in assay [5], 28.1 µM; in assay [6], 22.4 µM. Besides, the figures for the TGI in assay [7], in assay [8] and in assay [9] were 51.1 µM, 32 µM and 29.4 µM, respectively.
Consider `CCOC(=N)CC(=O)NC(C)c1ccccc1` (stereo not given), for which the TGI in [1], in assay [2], in assay [3], in [4], in assay [5] and in assay [6] was greater than 100 µM throughout. The TGI in [7], in assay [8] and in assay [9] was greater than 100 µM throughout.
Regarding `C/C(=N\NC(=S)N1CCC(C2CCN(C(=S)N/N=C(\C)c3ccccn3)CC2)CC1)c1ccccn1`, the TGI in assay [1], in [2], in assay [4], in assay [5], in assay [6] and in assay [7] was greater than 100 µM each time. Moreover, the TGI in [8] was greater than 100 µM; in assay [9] it was 67.4 µM.
As to `O=C1c2cccc3cccc(c23)C(=O)N1CCCN1CCN(CCCN2C(=O)c3cccc4cccc(c34)C2=O)CC1`, the TGI in assay [1], in assay [2], in assay [3], in assay [4], in assay [5] and in [6] was greater than 100 µM in each case. In addition, the TGI in assay [8] and in assay [9] was greater than 100 µM each time.
For the compound `CCCCCCCCCCCCCCCC(=O)OCC1OC(n2ccc(N)nc2=O)C(O)C1O` (stereo not given), the TGI in assay [1], in [2], in assay [3], in assay [4], in [5] and in [10] was greater than 100 µM in each case. Besides, the TGI in assay [6] is greater than 97 µM; in assay [7], greater than 100 µM; in assay [8] it was greater than 100 µM; in [9], greater than 100 µM.
Take `COc1cc(CC(=O)c2ccc3c(c2)OCO3)cc(OC)c1OC`: the TGI in assay [1], in [2], in assay [3], in assay [4], in assay [5] and in assay [6] was greater than 100 µM throughout. Further, the TGI in [7], in assay [8] and in assay [9] was greater than 100 µM each time.
Turning to `COC(=O)C1CCC(=NC2c3ccccc3-c3ccccc32)N1` (stereo not given), the TGI in assay [1], in assay [2], in assay [3], in assay [4], in assay [5] and in assay [6] was greater than 100 µM in each case. The TGI in assay [7], in [8] and in assay [9] was greater than 100 µM in each case.
As for `Cc1[nH]c(=O)nc(N/N=C/c2ccc(O)cc2)c1C(=O)Nc1ccc(Cl)cc1`, the TGI in assay [1], in assay [2], in [3], in [4], in assay [5] and in assay [6] was greater than 100 µM each time. Moreover, the TGI in [7], in [8] and in assay [9] was greater than 100 µM throughout.
`Cc1c(-c2coc(-c3ccc(Cl)cc3)n2)c(=O)n(-c2ccccc2)n1C`: the TGI in assay [1], in assay [2], in assay [3], in assay [4], in assay [5] and in [6] was greater than 100 µM each time. For the same compound, the TGI in assay [7] and in assay [9] was greater than 100 µM in each case.
On to `Fc1nc(F)nc(-c2c3ccccc3c3n2CCS3)n1`, for which the TGI in assay [1], in [2], in [3], in [4], in [5] and in [6] was greater than 100 µM throughout. In addition, the TGI in assay [7], in assay [8] and in assay [9] was greater than 100 µM each time.
Consider `CCOC(=O)NNC(=O)NC12CC3CC(CC(C3)C1)C2`, for which the TGI in [1], in assay [2], in [3], in assay [4], in assay [5] and in assay [6] was greater than 100 µM throughout. In addition, the TGI in assay [7], in assay [8] and in assay [9] was greater than 100 µM each time.
